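Interpolation was linear, between the two tested concentrations surrounding the appropriate level; five concentrations were tested over 48 hours in 96-well plates. Here, GI50 denotes the concentration required for 50% inhibition of growth.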 Activity calls are given as the source filed them. No stated cut-off is given here; in the data, active = GI50 up to about 1.1 µM and inactive = higher.
How the values were obtained:
Test in all cases: NCI tumour cell line growth inhibition, 48 h
NCI-H23 = tested on: NCI-H23
NCI/ADR-RES = tested on: NCI/ADR-RES
LOX IMVI = tested on: LOX IMVI
OVCAR-4 = tested on: OVCAR-4
SK-MEL-28 = tested on: SK-MEL-28
UACC-257 = tested on: UACC-257
DMS-273 = tested on: DMS-273
HCT-15 = tested on: HCT-15
A498 = tested on: A498
OVCAR-5 = tested on: OVCAR-5
HOP-92 = tested on: HOP-92
EKVX = tested on: EKVX
OVCAR-3 = tested on: OVCAR-3
SK-MEL-2 = tested on: SK-MEL-2
SF-268 = tested on: SF-268
SF-539 = tested on: SF-539
ACHN = tested on: ACHN
M14 = tested on: M14
SF-295 = tested on: SF-295
NCI-H522 = tested on: NCI-H522
UACC-62 = tested on: UACC-62
LXFL 529 = tested on: LXFL 529
TK-10 = tested on: TK-10
KM12 = tested on: KM12
RPMI-8226 = tested on: RPMI-8226
MOLT-4 = tested on: MOLT-4
CCRF-CEM = tested on: CCRF-CEM
SN12C = tested on: SN12C
A549 = tested on: A549
KM-20L2 = tested on: KM-20L2
COLO 205 = tested on: COLO 205
K562 = tested on: K562
IGROV-1 = tested on: IGROV-1
U-251 = tested on: U-251
SNB-78 = tested on: SNB-78
HT-29 = tested on: HT-29
SR = tested on: SR
SW-620 = tested on: SW-620
786-0 = tested on: 786-0
UO-31 = tested on: UO-31
CAKI-1 = tested on: CAKI-1
SNB-19 = tested on: SNB-19
HCC 2998 = tested on: HCC 2998
OVCAR-8 = tested on: OVCAR-8
HOP-62 = tested on: HOP-62
NCI-H226 = tested on: NCI-H226
HL-60 = tested on: HL-60
NCI-H460 = tested on: NCI-H460
RXF 393 = tested on: RXF 393

SMILES: COc1ccc(N[C@@H]2c3cc4c(cc3C(c3cc(OC)c(O)c(OC)c3)[C@H]3C(=O)OCC32)OCO4)cc1OC (some centres undefined)
- GI50 (NCI-H23): 0.297 µM (active)
- GI50 (NCI/ADR-RES): > 19.9 µM (inactive)
- GI50 (LOX IMVI): > 100 µM (inactive)
- GI50 (OVCAR-4): 20.3 µM (inactive)
- GI50 (SK-MEL-28): > 19.9 µM (inactive)
- GI50 (UACC-257): 4.21 µM (inactive)
- GI50 (DMS-273): > 100 µM (inactive)
- GI50 (HCT-15): > 100 µM
- GI50 (A498): > 100 µM (inactive)
- GI50 (OVCAR-5): > 19.9 µM (inactive)
- GI50 (HOP-92): > 100 µM (inactive)
- GI50 (EKVX): > 32.7 µM (inactive)

SMILES: COc1ccc2c3c([nH]c2c1[N+](=O)[O-])C(C)N(C(=O)/C=C/c1ccccc1)CC3 (centres undefined)
- GI50 (OVCAR-3): 4.8 µM (inactive)
- GI50 (SK-MEL-2): 10.7 µM (inactive)
- GI50 (SF-268): 1.7 µM (inactive)
- GI50 (SF-539): 10.8 µM (inactive)
- GI50 (ACHN): 9.77 µM (inactive)
- GI50 (NCI-H23): 25.5 µM (inactive)
- GI50 (M14): 5.92 µM (inactive)
- GI50 (SF-295): 2.42 µM (inactive)
- GI50 (NCI-H522): 2.9 µM (inactive)
- GI50 (UACC-62): 2.07 µM (inactive)
- GI50 (LOX IMVI): 2.92 µM (inactive)
- GI50 (OVCAR-4): 21.9 µM (inactive)
- GI50 (LXFL 529): 5.9 µM (inactive)
- GI50 (TK-10): 60.3 µM (inactive)
- GI50 (KM12): 4.24 µM (inactive)
- GI50 (RPMI-8226): 2.78 µM (inactive)
- GI50 (MOLT-4): 2.64 µM (inactive)
- GI50 (CCRF-CEM): 3.29 µM (inactive)
- GI50 (SK-MEL-28): 5.14 µM (inactive)
- GI50 (SN12C): 41.2 µM (inactive)
- GI50 (A549): 14.3 µM (inactive)
- GI50 (KM-20L2): 4.18 µM (inactive)
- GI50 (COLO 205): 3.46 µM (inactive)
- GI50 (K562): 2.88 µM (inactive)
- GI50 (UACC-257): 3.83 µM (inactive)
- GI50 (IGROV-1): > 100 µM (inactive)
- GI50 (U-251): 7.01 µM (inactive)
- GI50 (SNB-78): 7.05 µM (inactive)
- GI50 (DMS-273): 1.57 µM (inactive)
- GI50 (HT-29): 3.89 µM (inactive)
- GI50 (SR): 3.92 µM (inactive)
- GI50 (HCT-15): 5.71 µM
- GI50 (SW-620): 3.56 µM (inactive)
- GI50 (786-0): 12.7 µM (inactive)
- GI50 (UO-31): 28 µM (inactive)
- GI50 (CAKI-1): 3.66 µM (inactive)
- GI50 (A498): 2.62 µM (inactive)
- GI50 (SNB-19): 36.9 µM (inactive)
- GI50 (HCC 2998): 21.5 µM (inactive)
- GI50 (OVCAR-8): 3.91 µM (inactive)
- GI50 (OVCAR-5): > 100 µM (inactive)
- GI50 (HOP-62): 5.28 µM (inactive)
- GI50 (NCI-H226): 10.9 µM (inactive)
- GI50 (HL-60): 2.64 µM (inactive)
- GI50 (NCI-H460): 2.96 µM (inactive)
- GI50 (EKVX): 16.6 µM (inactive)
- GI50 (RXF 393): 3.27 µM (inactive)

Reference: ChEMBL document CHEMBL1201862, “PubChem BioAssay data set” (2004)
